Data: patent US20250243210A1, “CRBN E3 LIGASE LIGAND COMPOUND, PROTEIN DEGRADER DEVELOPED BASED THEREON AND THEIR APPLICATIONS” (GLUETACS THERAPEUTICS (SHANGHAI) CO., LTD., priority 2021, published 2025)

How the values were obtained:
LNcap = assay: CCK-8 tumor cell proliferation, LNcap; assay type: cell-based, Human; conditions: 96 h, read-out: IC50 for inhibiting the proliferation of tumor cells, LNcap
In short: (§1)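 Cells were seeded in 96-well plates and treated 24 h later with compounds at 10 concentrations, top 10 μM, 5-fold serial dilutions. Viability after the set treatment time was read with a CCK-8 kit, and IC50 was calculated from growth-inhibition curves.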

MM.1R = assay: CCK-8 tumor cell proliferation, MM.1R; assay type: cell-based; conditions: 72 h, read-out: IC50 for inhibiting the proliferation of tumor cells, MM.1R
Protocol: (§2) Determination of half inhibitory concentration (IC50) of the compounds against tumor cells:
(§3) The tumor cells used herein were cultured in a cell culture medium listed in table 6 at 37° C. in an incubator with 5% CO2.
(§4) After the cells were treated with the compounds of the present disclosure for a period of time (the treatment times listed in Table 7), the cell viability detection reagent was added to the culture medium for cell viability assessment according to the instructions provided with the CCK-8 kit. […] The growth inhibition of the compounds of the present disclosure on cells was plotted by Prism Graphpad software, and the IC50 values of the compounds of the present disclosure were calculated therefrom.

WSU-DLCL2 = assay: CCK-8 tumor cell proliferation, WSU-DLCL2; assay type: cell-based, Human; conditions: WSU-DLCL2, 96 h, read-out: IC50 for inhibiting the proliferation of tumor cells, WSU-DLCL2
In short: (§5)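 Cells grown at 37° C with 5% CO2, treated with compound for line-specific times, then viability read with CCK-8. IC50 derived from plotted growth inhibition curves.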

MGC80-3 = assay: CCK-8 tumor cell proliferation, MGC80-3; assay type: cell-based, Human; conditions: MGC80-3, 96 h, read-out: IC50 for inhibiting the proliferation of tumor cells, MGC80-3
In short: as §1

A549 = assay: CCK-8 tumor cell proliferation, A549; assay type: cell-based, Human; conditions: A549, 96 h, read-out: IC50 for inhibiting the proliferation of tumor cells, A549
Protocol: as §2
The tumor cells used herein were cultured in a cell culture medium listed in table 6 at 37° C. in an incubator with 5% CO2. Prior to experimentation, all cells used were correctly identified by STR profiling, and tested negative for mycoplasma through routine screenings.
IC50 values of the compounds of the present disclosure (including the compounds in Table 4 and compounds of examples 1-72) were measured using the Meilun Cell Counting Kit-S kit from Dalian Meilun Biotech Co., Ltd. Assay details are as follows: tumor cells were seeded in a 96-well plate at a density listed in Table 7. After 24 h, 100 μL of the inoculated cells were treated with 0.5 μL of the compounds of the present disclosure (including the compounds in Table 4 and compounds of examples 1-72) at 10 different successively decreasing concentrations (starting at the highest concentration of 10 μM; 5-fold serial dilutions). After the cells were treated with the compounds of the present disclosure for a period of time (the treatment times listed in Table 7), the cell viability detection reagent was added to the culture medium for cell viability assessment according to the instructions provided with the CCK-8 kit. […] The growth inhibition of the compounds of the present disclosure on cells was plotted by Prism Graphpad software, and the IC50 values of the compounds of the present disclosure were calculated therefrom.

CCRF-CEM = assay: CCK-8 tumor cell proliferation, CCRF-CEM; assay type: cell-based, Human; conditions: 96 h, read-out: IC50 for inhibiting the proliferation of tumor cells, CCRF-CEM
Protocol: as §2, §3, §4

DU-145 = assay: CCK-8 tumor cell proliferation, DU-145; assay type: cell-based, Human; conditions: DU-145, 96 h, read-out: IC50 for inhibiting the proliferation of tumor cells, DU-145
In short: as §5

Hep3B2.1-7 = assay: CCK-8 tumor cell proliferation, Hep3B2.1-7; assay type: cell-based, Human; conditions: Hep3B2.1-7, 96 h, read-out: IC50 for inhibiting the proliferation of tumor cells, Hep3B2.1-7
In short: as §1

Row | Structure (SMILES) | IC50 (LNcap) [µM] | IC50 (MM.1R) [µM] | IC50 (WSU-DLCL2) [µM] | IC50 (MGC80-3) [µM] | IC50 (A549) [µM] | IC50 (CCRF-CEM) [µM] | IC50 (DU-145) [µM] | IC50 (Hep3B2.1-7) [µM]
1 | N#Cc1ccc(OC2CCC(NC(=O)c3ccc(N4CCC(CN5CC6CC(C5)N6c5cc6c(cc5F)C(=O)N(C5CCC(=O)NC5=O)C6=O)CC4)nn3)CC2)cc1Cl (stereo not drawn) [GT-03486, N-((1r,4r)-4-(3-chloro-4-cyanophenoxy)cyclohexyl)-6-(4-((6-(2-(2,6-dioxopiperidin-3-yl)-6-fluoro-1,3-dioxoisoindolin-5-yl)-3,6-diazabicyclo[3.1.1]heptan-3-yl)methyl)piperidin-1-yl)pyridazine-3-carboxamide] | 0.1 to 0.5 | 0.1 to 0.5 | 0.1 to 0.5 | 0.05 to 0.1 | 0.1 to 0.5 | 0.1 to 0.5 |  | 
2 | N#Cc1ccc(OC2CCC(NC(=O)c3ccc(N4C5CCC4CN(CC4CCN(c6cc7c(cc6F)C(=O)N(C6CCC(=O)NC6=O)C7=O)CC4)C5)nn3)CC2)cc1Cl (stereo not drawn) [GT-03449, N-((1r,4r)-4-(3-chloro-4-cyanophenoxy)cyclohexyl)-6-(3-((1-(2-(2,6-dioxopiperidin-3-yl)-6-fluoro-1,3-dioxoisoindolin-5-yl)piperidin-4-yl)methyl)-3,8-diazabicyclo[3.2.1]octan-8-yl)pyridazine-3-carboxamide] | 0.05 to 0.1 | 0.1 to 0.5 |  | 0.05 to 0.1 |  | 0.1 to 0.5 | 0.5 to 1 | 0.05 to 0.1
